This is an account of results in PubChem BioAssay AID330 (DTP/NCI, 2004).

The experiment concerns P388 leukemia ip, CD2F1 mice, survival T/C. The experiment can be described thus: NCI In Vivo Anticancer Drug Screen. Data for tumor model P388 Leukemia (intraperitoneal) in CD2F1 (CDF1) mice. As to conditions: endpoint: median survival time, higher = longer survival. In outline: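 Mice carrying the transplanted tumor received test compound or vehicle. Survival was recorded in each group, and the value is the treated-group measurement divided by that of the vehicle-treated control group.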

Where [1] appears, read: dose: 50.0 mg/kg/injection, schedule: Q01DX009 (ip), vehicle: Klucel (hydroxypropylcellulose) (HPC).
Setting [2] is: dose: 100.0 mg/kg/injection, schedule: Q01DX009 (ip), vehicle: Klucel (hydroxypropylcellulose) (HPC).
[3] abbreviates: dose: 200.0 mg/kg/injection, schedule: Q01DX009 (ip), vehicle: Klucel (hydroxypropylcellulose) (HPC).
The mark [4] stands for this setting: dose: 60.0 mg/kg/injection, schedule: Q01DX005 (ip), vehicle: saline with Tween-80.
Setting [5] is: dose: 120.0 mg/kg/injection, schedule: Q01DX005 (ip), vehicle: saline with Tween-80.
[6] abbreviates: dose: 240.0 mg/kg/injection, schedule: Q01DX005 (ip), vehicle: saline with Tween-80.
Setting [7] is: dose: 50.0 mg/kg/injection, schedule: Q01DX009 (ip), vehicle: saline.
Where [8] appears, read: dose: 100.0 mg/kg/injection, schedule: Q01DX009 (ip), vehicle: saline.
[9] abbreviates: dose: 200.0 mg/kg/injection, schedule: Q01DX009 (ip), vehicle: saline.
[10] abbreviates: dose: 100.0 mg/kg/injection, schedule: Q01DX001 (ip), vehicle: Klucel (hydroxypropylcellulose) (HPC).
Where [11] appears, read: dose: 200.0 mg/kg/injection, schedule: Q01DX001 (ip), vehicle: Klucel (hydroxypropylcellulose) (HPC).
Setting [12] is: dose: 400.0 mg/kg/injection, schedule: Q01DX001 (ip), vehicle: Klucel (hydroxypropylcellulose) (HPC).
Setting [13] is: dose: 25.0 mg/kg/injection, schedule: Q01DX009 (ip), vehicle: other.

Molecules are shown by their SMILES. Where “and” joins values, the source holds several entries; their conditions need not be identical. Equal values may be shown once. Inconclusive results and toxic doses are left out.

Regarding `COc1cc2c(cc1Cc1cc(OC)c(OC)c(OC)c1)OCO2`, the T/C (dose: 60.0 mg/kg/injection, schedule: Q01DX005 (ip), vehicle: Klucel (hydroxypropylcellulose) (HPC)) was 98 % of control; the T/C (dose: 120.0 mg/kg/injection, schedule: Q01DX005 (ip), vehicle: Klucel (hydroxypropylcellulose) (HPC)) was 100 % of control; the T/C (dose: 240.0 mg/kg/injection, schedule: Q01DX005 (ip), vehicle: Klucel (hydroxypropylcellulose) (HPC)) was 98 % of control.
As to `O=C(NCCCN1CCOCC1)Nc1ccc(Cc2ccc(NC(=O)NCCCN3CCOCC3)cc2)cc1`, the T/C is, setting by setting: under setting [1], 94 % of control; under setting [2], 94 % of control; under setting [3], 94 % of control.
`CCC[CH2][Sn]1([CH2]CCC)[O]C(=O)CC[S]1`: the T/C was 121 % of control (dose: 3.13 mg/kg/injection, schedule: Q01DX005 (ip), vehicle: saline with Tween-80); 115 % of control and 120 % of control (dose: 6.25 mg/kg/injection, schedule: Q01DX005 (ip), vehicle: saline with Tween-80); 121 % of control (dose: 12.5 mg/kg/injection, schedule: Q01DX005 (ip), vehicle: saline with Tween-80).
As for `c1ccc(-c2nc3cccnc3s2)cc1`, the T/C is, setting by setting: under setting [4], 101 % of control; under setting [5], 101 % of control; under setting [6], 104 % of control.
In the case of `CS(=O)Cc1cc(-c2ccccc2)no1` (stereo not drawn), the T/C by setting is: under setting [4], 99 % of control; under setting [5], 104 % of control; under setting [6], 97 % of control.
Regarding `Cc1nc2scc(-c3ccccc3)n2c(=O)c1CN1CCOCC1`, the T/C is 106 % of control (dose: 37.5 mg/kg/injection, schedule: Q04DX002 (ip), vehicle: Klucel (hydroxypropylcellulose) (HPC)); 97 % of control (dose: 75.0 mg/kg/injection, schedule: Q04DX002 (ip), vehicle: Klucel (hydroxypropylcellulose) (HPC)); 103 % of control (dose: 150.0 mg/kg/injection, schedule: Q04DX002 (ip), vehicle: Klucel (hydroxypropylcellulose) (HPC)).
For the compound `NCC(OCCCC(=O)O)C(Cl)(Cl)Cl` (stereo not drawn), the T/C under setting [7] is 93 % of control, the T/C under setting [8] is 101 % of control and the T/C under setting [9] is 100 % of control.
`C[n+]1ccc(CCNC2CCC(N=NC3CCC([N+](=O)[O-])CC3)CC2)cc1` (stereo not drawn): the T/C runs as follows: under setting [7], 105 % of control and 92 % of control; under setting [8], 108 % of control; under setting [9], 102 % of control and 118 % of control.
Turning to `CN1C(c2ccccc2)=NN=C(C(F)(F)F)N1C`, the T/C (dose: 100.0 mg/kg/injection, schedule: Q01DX001 (ip), vehicle: distilled water + Tween-80 + alcohol) is 98 % of control; the T/C (dose: 200.0 mg/kg/injection, schedule: Q01DX001 (ip), vehicle: distilled water + Tween-80 + alcohol) is 101 % of control; the T/C (dose: 400.0 mg/kg/injection, schedule: Q01DX001 (ip), vehicle: distilled water + Tween-80 + alcohol) is 106 % of control.
As for `CCN(CC)C(C)(C)C(=O)/C=C/c1ccc(C)cc1`, the T/C is, setting by setting: under setting [4], 107 % of control; under setting [5], 103 % of control.
`NC(=NCc1ccncc1)N/N=C\c1ccnc2ccccc12`: the T/C runs as follows: (dose: 60.0 mg/kg/injection, schedule: Q01DX005 (ip), vehicle: saline) 107 % of control; (dose: 120.0 mg/kg/injection, schedule: Q01DX005 (ip), vehicle: saline) 106 % of control.
Regarding `O=c1/c(=C/c2ccc(Cl)cc2)sc2nc(-c3ccccc3)nn12`, the T/C is 94 % of control under setting [1], 95 % of control under setting [2] and 101 % of control under setting [3].
With `Cc1ccc(C(=O)CC2(O)C(=O)Nc3c(Cl)cc(Cl)cc32)cc1` (stereo not drawn), the T/C is 103 % of control under setting [4], 108 % of control under setting [5] and 100 % of control under setting [6].
Consider `CC[C@@]1(C(N)=O)CC2C=CC1C2` (stereo partly drawn), for which the T/C (dose: 50.0 mg/kg/injection, schedule: Q01DX005 (ip), vehicle: Klucel (hydroxypropylcellulose) (HPC)) is 94 % of control; the T/C (dose: 100.0 mg/kg/injection, schedule: Q01DX005 (ip), vehicle: Klucel (hydroxypropylcellulose) (HPC)) was 90 % of control; the T/C (dose: 200.0 mg/kg/injection, schedule: Q01DX005 (ip), vehicle: Klucel (hydroxypropylcellulose) (HPC)) is 96 % of control.
`COc1ccc2c(c1)CC[C@@H]1[C@@H]2CC[C@]2(C)[C@@H](OCCOS(=O)(=O)c3ccc(C)cc3)CC[C@@H]12`: the T/C (dose: 100.0 mg/kg/injection, schedule: Q01DX001 (ip), vehicle: saline with Tween-80) was 99 % of control; the T/C (dose: 200.0 mg/kg/injection, schedule: Q01DX001 (ip), vehicle: saline with Tween-80) was 101 % of control; the T/C (dose: 400.0 mg/kg/injection, schedule: Q01DX001 (ip), vehicle: saline with Tween-80) is 101 % of control.
As for `CCC12Nc3ccc([N+](=O)[O-])cc3C(CC)(C1=O)C(c1ccccc1)=C2c1ccccc1` (stereo not drawn), the T/C is, setting by setting: under setting [1], 113 % of control; under setting [2], 110 % of control; under setting [3], 112 % of control.
With `COc1cc(/C=C\Cc2cc3c(cc2OC(C)=O)OCO3)cc(OC)c1OC`, the T/C is, setting by setting: under setting [4], 91 % of control; under setting [5], 91 % of control; under setting [6], 90 % of control.
Turning to `C(=C\c1cccs1)/c1ccnnc1`, the T/C runs as follows: (dose: 25.0 mg/kg/injection, schedule: Q01DX009 (ip), vehicle: saline) 101 % of control; under setting [7], 99 % of control; under setting [8], 86 % of control and 96 % of control.
With `Cc1ccc(N=Cc2ccccc2O)c(Br)c1`, the T/C runs as follows: under setting [1], 88 % of control; under setting [2], 89 % of control; under setting [3], 98 % of control.
Take `Cc1ccc(S(=O)(=O)NNC(=O)c2nc3ccccc3c(=O)[nH]2)cc1`: the T/C is, setting by setting: under setting [4], 100 % of control; under setting [5], 92 % of control.
As for `c1ccc(C2=NCCN=C2c2ccccc2)cc1`, the T/C by setting is: under setting [10], 94 % of control; under setting [11], 99 % of control; under setting [12], 93 % of control.
Consider `Cc1ccc(S(=O)(=O)N/N=C/c2c(Br)nc3sccn23)cc1`, for which the T/C under setting [10] was 106 % of control, the T/C under setting [11] was 108 % of control and the T/C under setting [12] is 106 % of control.
`O=c1c2cc(Cl)ccc2on1CN1CCOCC1`: the T/C (dose: 50.0 mg/kg/injection, schedule: Q01DX005 (ip), vehicle: saline with Tween-80) is 111 % of control; the T/C (dose: 100.0 mg/kg/injection, schedule: Q01DX005 (ip), vehicle: saline with Tween-80) is 118 % of control; the T/C (dose: 200.0 mg/kg/injection, schedule: Q01DX005 (ip), vehicle: saline with Tween-80) was 111 % of control.
Take `CN(C)c1ccc2c(c1)Sc1cc(N(C)C)ccc1N2C(=O)c1ccccc1`: the T/C runs as follows: (dose: 12.5 mg/kg/injection, schedule: Q01DX009 (ip), vehicle: Klucel (hydroxypropylcellulose) (HPC)) 105 % of control; (dose: 25.0 mg/kg/injection, schedule: Q01DX009 (ip), vehicle: Klucel (hydroxypropylcellulose) (HPC)) 103 % of control; under setting [1], 102 % of control; under setting [2], 98 % of control.
Turning to `CN(C)CN1C(=O)S/C(=C2\C(=O)N(C)c3ccc(Br)cc32)C1=O`, the T/C is 101 % of control under setting [10], 95 % of control under setting [11] and 97 % of control under setting [12].
With `CC/C(=N\NC(N)=NC)c1ccc(Cl)cc1`, where the note is “dose: 25.0 mg/kg/injection, schedule: Q04DX002 (ip), vehicle: saline”, the T/C is 101 % of control.
On to `CC(=O)OCC1OC(OC(C)=O)C(NC(=O)CNC(=O)OCc2ccccc2)C(OC(C)=O)C1OC(C)=O` (stereo not drawn), for which the T/C by setting is: (dose: 12.5 mg/kg/injection, schedule: Q01DX009 (ip), vehicle: other) 107 % of control; under setting [13], 100 % of control; (dose: 50.0 mg/kg/injection, schedule: Q01DX009 (ip), vehicle: other) 91 % of control; (dose: 100.0 mg/kg/injection, schedule: Q01DX009 (ip), vehicle: other) 89 % of control; (dose: 200.0 mg/kg/injection, schedule: Q01DX009 (ip), vehicle: other) 98 % of control.
With `ClCCCCOC1CCCCO1` (stereo not drawn), the T/C runs as follows: under setting [4], 107 % of control; under setting [5], 100 % of control; under setting [6], 105 % of control.
For `O=P(c1ccccc1)(c1ccccc1)c1ccccc1` (tested in a mixture with another compound), the T/C under setting [13] is 89 % of control.
